Source: patent US20060106098A1, “Andrographolide and its derivatives as TNF-alpha antagonists” (Advanced Gene Technology, Corp., priority 2004, published 2006)

Legend:
[1] = test system: collagen-induced arthritis; experiment: Anti-inflammatory effect on rats with collagen-induced arthritis model; assay type: in vivo, SD rats; conditions: for histopathological slice of joint: rat with CIA
TNFα = biological target: T1, TNFα (Homo sapiens, UniProt P01375); experiment: In vitro L929 cell proliferation/cytotoxicity assay, TNFα activity inhibition; assay type: cell-based; conditions: L929 cell line, TNFα 0.1 ng/ml, Act D 2 μg/ml; read-out: IC50 as TNFα antagonist
T1 construct: purchased
T1 sequence (P01375 77-233 limits assumed): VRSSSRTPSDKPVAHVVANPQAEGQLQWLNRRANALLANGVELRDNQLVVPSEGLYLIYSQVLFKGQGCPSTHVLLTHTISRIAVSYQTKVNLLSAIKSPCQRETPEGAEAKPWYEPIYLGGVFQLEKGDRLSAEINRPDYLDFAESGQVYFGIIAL
Description: (§1) In vitro L929 cell proliferation/cytotoxicity assay was performed on microtiter plates. L929 cells were cultured in Eagle's Minimal Essential Medium (EMEM) containing 10% bovine serum, 1% P/S and 1% non-essential amino acid. Confluent L929 cells were washed with 2 ml PBS solution and then trypsinized, followed by resuspending in complete medium. Two hundred μl cell suspension was aspirated for counting the cell density and the other suspension was centrifuged at 1500 rpm for 5 min. The supernatant was removed and the complete medium was added to dilute cells to a final concentration of 1.5×10^5 cells/ml. One hundred μl of cell suspension was added to each well in 96-well flat-bottomed microtiter plates and incubated for 24 hrs in 5% CO2 atmosphere at 37° C.
The chemical was resuspended in 1×PBS and sterilized with 0.22 μm filters. […]
(§2) The same samples as those for TNFα activity assay were added to the 96-well plate with the medium containing Act D to give the final concentration of Act D 2 μg/ml. […] 50 μl XTT (2,3-bis(2-methoxy-4-nitro-5-sulfophenyl)-5-[((phenylamino)carbonyl]-2H-tetra -zolium hydroxide) mixture was added to each well, and incubated for 4 hrs. Read with ELISA reader at O.D. 490/630 nm. Calculation of the TNFα Activity Inhabitation and Cytotoxicity [formula] [formula] 8. The Effect of the Methanolic Extract of A. Paniculata on L929 Cell Proliferation/Cytotoxicity Assay

L929 cells = experiment: Cytotoxicity on L929 cells (XTT, with Act D, without TNFα); assay type: cell-based; conditions: at the IC50 concentration (60 μM)
Description: as §1, §2

[2] = CIA rats, 3rd day after treatment stopped (T4)
[3] = CIA rats, 7th day after treatment stopped (T5)

Compound	decreased percentage of edema [1, 2] [%]	decreased percentage of edema [1, 3] [%]	IC50 (TNFα) [µM]	cytotoxicity (L929 cells)	decreased percentage of edema volume of hind paws ([1]; CIA rats, during the 7-day treatment (T3, 6th day of treatment)) [%]	histopathological slice of joint ([1]; treated IP)	histopathological slice of joint ([1]; treated by external application)	histopathological slice of joint ([1]; treated by oral)
C[C@@H]1C[C@H]2[C@@H]3CCC4=CC(=O)C=C[C@]4(C)[C@@]3(F)[C@@H](O)C[C@]2(C)[C@@]1(O)C(=O)CO [dexamethasone, Dexamethasone, reference compound]	28.21	29.97						
C=C1CC[C@@H]2[C@](C)(CO)[C@H](O)CC[C@@]2(C)[C@@H]1C/C=C1/C(=O)OC[C@H]1O [andrographolide, Andrographolide]	61.43	50.24	60	No cytotocixity was found	48.1	Proliferation of synovial lining cell and infiltration of erythrocytes and some lymphocytes were observed	Proliferation of synovial lining cell and loosely connective tissues appeared	Proliferation of synovial lining cell and infiltration of lymphocytes were found
